According to patent US9657013B2, “Inhibitors of hepatitis B virus covalently closed circular DNA formation and their method of use” (priority 2012, dated 2017):

Assays:
HBV cccDNA = assay: cccDNA inhibition assay (Southern blot of Hirt DNA); format: cell-based, hepatitis B virus; settings: for inhibition at 1 µM / inhibition at 3 µM / inhibition at 10 µM / inhibition at 30 µM / inhibition at 0.3 µM: Hepatitis B virus, read-out: cccDNA inhibition % Reduction; for inhibition at 30 µM: Concentration 30 μM; for inhibition at 0.3 µM: Concentration 0.3 μM
Experimental: Cell cultures: HepG2.2.15 cells were maintained in DMEM/F12 medium (Mediatech, Manassas, Va.) supplemented with 10% fetal bovine serum, 100 U/ml penicillin and 100 μg/ml streptomycin, plus 400 μg/ml G418. Tetracycline inducible HBV producer cells, specifically HepDE19 and HepDES19 cells, were maintained in the same way as HepG2.2.15, but with the addition of 1 μg/ml tetracycline (Guo, H., D. Jiang, T. Zhou, A. Cuconati, T. M. Block, and J. T. Guo. 2007). To initiate HBV replication and cccDNA formation in HepDE19 and HepDES19 cells, tetracycline was withdrawn from the culture medium and the cells were cultured for the indicated time period.
Viral nucleic acid analysis: Total cellular RNA was extracted with TRIzol reagent (Invitrogen, Grand Island, N.Y.) by following manufacturer's directions. Ten microgram of total cellular RNA was resolved in 1.5% agarose gel containing 2.2 M formaldehyde and transferred onto Hybond-XL membrane (GE Healthcare, Piscataway, N.J.) in 20×SSC buffer. Intracellular hepadnaviral core DNA and cccDNA (Hirt DNA) were extracted as described previously (Guo, H., D. Jiang, T. Zhou, A. Cuconati, T. M. Block, and J. T. Guo. 2007. Guo, H., D. Jiang, T. Zhou, A. Cuconati, T. M. Block, and J. T. Guo. 2007. Guo, H., R. Mao, T. M. Block, and J. T. Guo. 2010. Guo, H., W. S. Mason, C. E. Aldrich, J. R. Saputelli, D. S. Miller, A. R. Jilbert, and J. E. Newbold. 2005). Half of the DNA samples recovered from one well of a 6-well-plate were resolved by electrophoresis into a 1.2% agarose gel and blotted onto Hybond-XL membrane. Membranes were probed with either an α-^32P-UTP (800 Ci/mmol, Perkin Elmer) labeled hepadnaviral minus (detecting DNA) or plus strand (detecting RNA) specific full-length riboprobe and exposed to a phosphorimager screen (Fuji Film, Tokyo, Japan). Hybridization signals were visualized by Typhoon FLA-7000 (GE Healthcare) and quantified with ImageQuantTL software (GE Healthcare). […]
Identification of compounds that inhibits cccDNA accumulation in HepDES19 cells: Compounds were tested on HepDES19 cells, which have a higher level of cccDNA production than HepDE19 cells (Guo, H., D. Jiang, T. Zhou, A. Cuconati, T. M. Block, and J. T. Guo. 2007). Briefly, after withdrawal of tetracycline, HepDES19 cells were left untreated, or were treated with compound at serial concentrations; tetracycline-free media was changed every other day with fresh compound supplementation. The concentration of DMSO in all experimental groups was normalized at 0.1%. The cells were harvested at day 12, viral RNA (top panel), core DNA (middle panel), and Hirt DNA (DP-rcDNA and cccDNA) (bottom panels) were extracted and analyzed by Northern blot and Southern blot, respectively. Shorter exposure of the Hirt DNA blot was used for the quantitative determination of DP-rcDNA signals. […] The reduction between DP-rcDNA and cccDNA was proportional compared with untreated control. […] Liu, C. P. Hu, and C. Chang. 2005. Guo, H., T. Zhou, D. Jiang, A. Cuconati, G. H. Xiao, T. M. Block, and J. T. Guo. 2007. Zhou, T., H. Guo, J. T. Guo, A. Cuconati, A. Mehta, and T. M. Block. 2006).

[1] = cytotoxicity assay (MTT, CC50); format: cell-based; settings: human, HepDE19 cells
Experimental: (§1) Cell plates were then incubated with compound dilutions and controls as described above, and addition of 3-[4,5-dimethylthiazol-2-yl]-2,5-diphenyltetrazolium bromide (MTT, Sigma-Aldrich) was added to a final concentration of 0.5 mg/ml (Mosmann, T. 1983). Plates were again incubated at 37° C. for 4 hrs, after which 10% SDS/0.01N HCl was added to each well in a volume equal to the medium (100 μl), followed by overnight incubation. Absorbance was read in the Rainbow spectrophotometer (Tecan US Inc., Durham, N.C.) at 570 nm (reference wavelength of 630 nm), and analyzed with XLfit 4.0 as described above.

HepDE19 cells = assay: cytotoxicity assay (MTT, CC50); format: cell-based
Experimental: as §1

SMILES	inhibition at 3 µM (HBV cccDNA; Concentration 3 μM) [%]	inhibition at 10 µM (HBV cccDNA; Concentration 10 μM) [%]	CC50 [1] [µM]	inhibition at 30 µM (HBV cccDNA) [%]	also measured
O=C(CN(c1cc(C(F)(F)F)ccc1Br)S(=O)(=O)c1ccccc1)NCc1ccncc1 [CCC-1002-2]	30	90	> 50		inhibition at 1 µM (HBV cccDNA; Concentration 1 μM): 30%
O=C(CN(c1cc(C(F)(F)F)ccc1F)S(=O)(=O)c1ccccc1)NCc1ccncc1 [CCC-1022-3]	50	75	> 50		inhibition at 1 µM (HBV cccDNA; Concentration 1 μM): 20%
O=C(CN(c1cc(C(F)(F)F)ccc1Cl)S(=O)(=O)c1ccc(F)cc1)NCc1ccncc1 [CCC-Lu25-20]	20	60	> 50	70	
O=C(CN(c1cc(C(F)(F)F)ccc1Cl)S(=O)(=O)c1ccccc1)NCc1ccncc1 [CCC-Lu25-22]		70	> 50	70	cccDNA inhibition % Reduction (HBV cccDNA; Concentration 3 μM, 3 µM): 40%
O=C(CN(c1cc(C(F)(F)F)ccc1Cl)S(=O)(=O)c1ccc(Cl)cc1)NCc1ccncc1 [CCC-Lu25-32]	95	95	> 50	95	
Cc1ccc(S(=O)(=O)N(CC(=O)NCc2ccncc2)c2cc(C(F)(F)F)ccc2Cl)cc1 [CCC-Lu25-38]	95	95	> 50	95	
COc1ccc(S(=O)(=O)N(CC(=O)NCc2ccncc2)c2cc(C(F)(F)F)ccc2Cl)cc1 [CCC-Lu25-39]	95	95	49.2	95	
O=C(CN(c1cc(Cl)ccc1F)S(=O)(=O)c1ccccc1)NCc1ccncc1 [CCC-Lu25-41]	10	30	> 50	40	
O=C(CN(c1cc(C(F)(F)F)ccc1Cl)S(=O)(=O)c1ccc(C(F)(F)F)cc1)NCc1ccncc1 [CCC-Lu25-42]	90	95	> 50		inhibition at 1 µM (HBV cccDNA; Concentration 1 μM): 20%
O=C(CN(c1cc(C(F)(F)F)ccc1Cl)S(=O)(=O)c1ccc(C(F)(F)F)cc1Cl)NCc1ccncc1 [CCC-Lu25-50]	95		30.2		
O=C(CN(c1cc(C(F)(F)F)ccc1Cl)S(=O)(=O)c1ccccc1)NCc1cccnc1 [CCC-Lu25-51]	80		> 50		
O=C(CN(c1cc(C(F)(F)F)ccc1Cl)S(=O)(=O)c1ccccc1)NCc1cncnc1 [CCC-Lu25-52]	80		> 50		
O=C(CN(c1cc(C(F)(F)F)ccc1Cl)S(=O)(=O)c1ccccc1)NCc1ccncn1 [CCC-Lu25-53]	70		> 50		
O=C(CN(c1cc(C(F)(F)F)ccc1Cl)S(=O)(=O)c1ccccc1)N1CCc2cnccc2C1 [CCC-Lu25-54]	50		> 50		
CC(C)(C)OC(=O)N1CCC(CNC(=O)CN(c2cc(C(F)(F)F)ccc2Cl)S(=O)(=O)c2ccccc2)CC1 [CCC-Lu25-55]	95		19.1		
CC(C)(C)CC(=O)NCCNC(=O)CN(c1cc(C(F)(F)F)ccc1F)S(=O)(=O)c1ccccc1 [CCC-Lu25-56]	70		28.4		
CN1CCC(CNC(=O)CN(c2cc(C(F)(F)F)ccc2Cl)S(=O)(=O)c2ccccc2)CC1 [CCC-Lu25-61-1]	30		> 50		
C[N+]1(C)CCC(CNC(=O)CN(c2cc(C(F)(F)F)ccc2Cl)S(=O)(=O)c2ccccc2)CC1 [CCC-Lu25-61-2]	30		> 50		
O=C(NCc1ccncc1)c1cc2ccccc2n1S(=O)(=O)c1ccccc1 [IHVR 13022-1]	60	65	> 50		inhibition at 1 µM (HBV cccDNA; Concentration 1 μM): 50%
Cc1cc2cc(NC(=O)c3ccc(S(=O)(=O)N(C)Cc4ccccc4)cc3)ccc2[nH]1 [IHVR-13003-1]	3	5	> 50	10	
CN(Cc1ccccc1)S(=O)(=O)c1ccc(C(=O)Nc2ccc3ncsc3c2)cc1 [IHVR-13004]	50		34.1		inhibition at 0.3 µM (HBV cccDNA): 0%; inhibition at 1 µM (HBV cccDNA; Concentration 1 μM): 0%
Cc1nc2ccc(NC(=O)c3ccc(S(=O)(=O)N(C)Cc4ccccc4)cc3)cc2s1 [IHVR-13006]	50		5.9		inhibition at 0.3 µM (HBV cccDNA): 2%; inhibition at 1 µM (HBV cccDNA; Concentration 1 μM): 50%
CN(Cc1ccccc1)S(=O)(=O)c1ccc(C(=O)NCc2ccncc2)cc1 [IHVR-13009]	15	15	> 50	30	
Cc1nc2cc(NC(=O)CN(c3cc(C(F)(F)F)ccc3Cl)S(=O)(=O)c3ccccc3)ccc2s1 [IHVR-13102]	30	80	> 50	30	
O=C(CN(c1cc(C(F)(F)F)ccc1Cl)S(=O)(=O)c1ccccc1)NCc1ccncc1 [IHVR-13106]					cccDNA inhibition % Reduction (HBV cccDNA; Concentration 1 μM, 1 µM): 0%; cccDNA inhibition % Reduction (HBV cccDNA; Concentration 3 μM, 3 µM): 70%; cccDNA inhibition % Reduction (HBV cccDNA; Concentration 10 μM, 10 µM): 80%; CC50 (HepDE19 cells): > 50 µM
O=C(NCc1ccncc1)C1CCCN1S(=O)(=O)c1ccccc1 (stereo not drawn) [IHVR-13108]	70	50	> 50		inhibition at 1 µM (HBV cccDNA; Concentration 1 μM): 10%
CN1CCN(c2ccc(CNC(=O)CN(c3cc(C(F)(F)F)ccc3Cl)S(=O)(=O)c3ccccc3)cc2)CC1 [IHVR-29022]	30		49.5		
CN1CCN(c2cccc(CNC(=O)CN(c3cc(C(F)(F)F)ccc3Cl)S(=O)(=O)c3ccccc3)c2)CC1 [IHVR-29023]	30		38.7		
